Measurements published in patent publication US10622572B2, “Organic thin-film transistor and method for manufacturing the same, material for organic thin-film transistor, composition for organic thin-film transistor, compound, and organic semiconductor film” (FUJIFILM Corporation, priority 2015, dated 2020).
Like-named read-outs stand apart in the source and are kept apart here.

Test: Solubility in organic solvents
Format: physicochemical
Details: organic solvent or mixture, thermodynamic from solid
[1] = 5 mg in 1 mL anisole, read-out: Solubility Anisole
[2] = 5 mg in 1 mL chloroform, read-out: Solubility Chloroform
[3] = 5 mg in 1 mL tetrahydrofuran, read-out: Solubility Tetrahydrofuran
[4] = 5 mg in 1 mL tetralin, read-out: Solubility Tetralin
[5] = 5 mg in 1 mL toluene, read-out: Solubility Toluene

| SMILES | solubility [1] [µg/mL] | solubility [2] [µg/mL] | solubility [3] [µg/mL] | solubility [4] [µg/mL] | solubility [5] [µg/mL] |
| --- | --- | --- | --- | --- | --- |
| CC(C)[Si](C#Cc1cc2c(cc(C#C[Si](C(C)C)(C(C)C)C(C)C)c3c4cc(F)sc4ccc23)c2ccc3sc(F)cc3c12)(C(C)C)C(C)C [Compound 3] | > 5000 | > 5000 | > 5000 | > 5000 | > 5000 |
| CC(C)[Si](C#Cc1cc2c(cc(C#C[Si](C(C)C)(C(C)C)C(C)C)c3c4ccsc4ccc23)c2ccc3sccc3c12)(C(C)C)C(C)C [Compound 1] | > 5000 | > 5000 | > 5000 | > 5000 | > 5000 |
| CC(C)[Si](C#Cc1cc2c(cc(C#C[Si](C(C)C)(C(C)C)C(C)C)c3c2ccc2cc(F)sc23)c2ccc3cc(F)sc3c12)(C(C)C)C(C)C [Compound 4] | > 5000 | > 5000 | > 5000 | > 5000 | > 5000 |
| CC(C)[Si](C#Cc1cc2c(cc(C#C[Si](C(C)C)(C(C)C)C(C)C)c3c2ccc2ccsc23)c2ccc3ccsc3c12)(C(C)C)C(C)C [Compound 2] | > 5000 | > 5000 | > 5000 | > 5000 | > 5000 |
